In ChEMBL document CHEMBL2311316, “Synthesis and biological evaluation of ¹⁸F labeled fluoro-oligo-ethoxylated 4-benzylpiperazine derivatives for sigma-1 receptor imaging” (Bioorg Med Chem, 2013):

How the values were obtained:
Rattus norvegicus = species on record: Rattus norvegicus; assay: Selectivity index, ratio of Ki for sigma2 receptor in rat liver membranes to Ki for sigma1 receptor in rat brain membranes; type: cell membranes
[1] = Displacement of [3H]ditolyguanidine from sigma2 receptor in rat liver membranes; type: cell membranes, Membrane
[2] = target: Sigma non-opioid intracellular receptor 1 (Rattus norvegicus, UniProt Q9R0C9); assay: Displacement of (+)-[3H]pentazocine from sigma1 receptor in rat brain membranes; type: cell membranes
Brain = assay: Specific drug uptake in ICR mouse brain at 4 uCi, iv measured 60 mins post dose; type: ADME, organism-based; conditions: in vivo, 1 h
[3] = target: T1, Vesicular acetylcholine transporter (Homo sapiens, UniProt Q16572); assay: Binding affinity to VAChT (unknown origin)
T1 sequence (Q16572 whole entry): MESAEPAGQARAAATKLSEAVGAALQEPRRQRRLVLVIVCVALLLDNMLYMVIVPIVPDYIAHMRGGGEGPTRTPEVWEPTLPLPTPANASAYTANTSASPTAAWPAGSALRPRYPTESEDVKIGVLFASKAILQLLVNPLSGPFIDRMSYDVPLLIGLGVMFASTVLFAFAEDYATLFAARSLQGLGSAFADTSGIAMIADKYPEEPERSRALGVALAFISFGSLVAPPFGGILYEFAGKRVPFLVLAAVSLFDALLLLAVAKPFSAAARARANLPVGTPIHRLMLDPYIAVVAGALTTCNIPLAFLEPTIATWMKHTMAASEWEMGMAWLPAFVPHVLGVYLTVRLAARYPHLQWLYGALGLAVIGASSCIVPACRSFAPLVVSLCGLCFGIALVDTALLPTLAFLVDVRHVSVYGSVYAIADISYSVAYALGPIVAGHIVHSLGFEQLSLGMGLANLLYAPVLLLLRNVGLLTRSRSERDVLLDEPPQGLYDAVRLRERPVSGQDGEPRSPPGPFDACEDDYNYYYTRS

Sigma non-opioid intracellular receptor 1, sequence (Q9R0C9 whole entry): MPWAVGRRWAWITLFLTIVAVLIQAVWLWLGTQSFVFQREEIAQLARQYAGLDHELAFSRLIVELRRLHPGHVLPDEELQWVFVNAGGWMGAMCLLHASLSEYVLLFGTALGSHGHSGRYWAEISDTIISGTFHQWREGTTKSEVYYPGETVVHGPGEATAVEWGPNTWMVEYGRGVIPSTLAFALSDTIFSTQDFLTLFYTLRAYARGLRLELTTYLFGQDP

Q: What does the source list for `FCCOCCOc1ccc(CN2CCN(Cc3ccc4c(c3)OCO4)CC2)cc1`?
A: Ratio Ki (Rattus norvegicus): 16.4; Ki [1]: 666 nM; Ki [2]: 40.7 nM

Q: With `FCCOCCOCCOc1ccc(CN2CCN(Cc3ccc4c(c3)OCO4)CC2)cc1` as the molecule, how does the Ratio Ki (Rattus norvegicus) read?
A: 2.81

Q: And the Ki [1]?
A: 1420 nM

Q: And the Ki [2]?
A: 505 nM

Q: For `O=C(CCCN1CCC(O)(c2ccc(Cl)cc2)CC1)c1ccc(F)cc1` [HALOPERIDOL], which Ki [1] is on record?
A: 20.7 nM

Q: What does the source list for `[17F]CCC1OC2(CCN(Cc3ccccc3)CC2)c2ccccc21` (configuration not stated) [[18F]FLUSPIDINE]?
A: Drug uptake (Brain): 62%; Ki [3]: 211 nM

Q: What does the source list for `FCCOc1ccc(CN2CCN(Cc3ccc4c(c3)OCO4)CC2)cc1`?
A: Ratio Ki (Rattus norvegicus): 157; Ki [1]: 291 nM; Ki [2]: 1.85 nM
